From EP4660182A1, “NAV1.7- AND/OR NAV1.8-INHIBITING ARYL PYRIDINE COMPOUNDS, PROCESSES FOR THE PREPARATION THEREOF, COMPOSITIONS, USES, METHODS FOR TREATMENT USING SAME, AND KITS” (Eurofarma Laboratórios S.A., priority 2023, dated 2024)

What was measured:
[1] = target: T1, human sodium channels Nav 1.7 (Homo sapiens, UniProt Q15858); test: Automated whole-cell voltage-clamp (ScreenPatch 384P) sodium current block, Nav 1.7; format: cell-based; settings: CHO cells stably expressing human Nav 1.7; inactivation step -40 mV 8 s, test step 0 mV (TP1A); eight concentrations; exposure at least five minutes; room temperature; read-out: Nav1.7 IC50
T1 construct: expressed in transfected cells
T1 sequence (Q15858 whole entry): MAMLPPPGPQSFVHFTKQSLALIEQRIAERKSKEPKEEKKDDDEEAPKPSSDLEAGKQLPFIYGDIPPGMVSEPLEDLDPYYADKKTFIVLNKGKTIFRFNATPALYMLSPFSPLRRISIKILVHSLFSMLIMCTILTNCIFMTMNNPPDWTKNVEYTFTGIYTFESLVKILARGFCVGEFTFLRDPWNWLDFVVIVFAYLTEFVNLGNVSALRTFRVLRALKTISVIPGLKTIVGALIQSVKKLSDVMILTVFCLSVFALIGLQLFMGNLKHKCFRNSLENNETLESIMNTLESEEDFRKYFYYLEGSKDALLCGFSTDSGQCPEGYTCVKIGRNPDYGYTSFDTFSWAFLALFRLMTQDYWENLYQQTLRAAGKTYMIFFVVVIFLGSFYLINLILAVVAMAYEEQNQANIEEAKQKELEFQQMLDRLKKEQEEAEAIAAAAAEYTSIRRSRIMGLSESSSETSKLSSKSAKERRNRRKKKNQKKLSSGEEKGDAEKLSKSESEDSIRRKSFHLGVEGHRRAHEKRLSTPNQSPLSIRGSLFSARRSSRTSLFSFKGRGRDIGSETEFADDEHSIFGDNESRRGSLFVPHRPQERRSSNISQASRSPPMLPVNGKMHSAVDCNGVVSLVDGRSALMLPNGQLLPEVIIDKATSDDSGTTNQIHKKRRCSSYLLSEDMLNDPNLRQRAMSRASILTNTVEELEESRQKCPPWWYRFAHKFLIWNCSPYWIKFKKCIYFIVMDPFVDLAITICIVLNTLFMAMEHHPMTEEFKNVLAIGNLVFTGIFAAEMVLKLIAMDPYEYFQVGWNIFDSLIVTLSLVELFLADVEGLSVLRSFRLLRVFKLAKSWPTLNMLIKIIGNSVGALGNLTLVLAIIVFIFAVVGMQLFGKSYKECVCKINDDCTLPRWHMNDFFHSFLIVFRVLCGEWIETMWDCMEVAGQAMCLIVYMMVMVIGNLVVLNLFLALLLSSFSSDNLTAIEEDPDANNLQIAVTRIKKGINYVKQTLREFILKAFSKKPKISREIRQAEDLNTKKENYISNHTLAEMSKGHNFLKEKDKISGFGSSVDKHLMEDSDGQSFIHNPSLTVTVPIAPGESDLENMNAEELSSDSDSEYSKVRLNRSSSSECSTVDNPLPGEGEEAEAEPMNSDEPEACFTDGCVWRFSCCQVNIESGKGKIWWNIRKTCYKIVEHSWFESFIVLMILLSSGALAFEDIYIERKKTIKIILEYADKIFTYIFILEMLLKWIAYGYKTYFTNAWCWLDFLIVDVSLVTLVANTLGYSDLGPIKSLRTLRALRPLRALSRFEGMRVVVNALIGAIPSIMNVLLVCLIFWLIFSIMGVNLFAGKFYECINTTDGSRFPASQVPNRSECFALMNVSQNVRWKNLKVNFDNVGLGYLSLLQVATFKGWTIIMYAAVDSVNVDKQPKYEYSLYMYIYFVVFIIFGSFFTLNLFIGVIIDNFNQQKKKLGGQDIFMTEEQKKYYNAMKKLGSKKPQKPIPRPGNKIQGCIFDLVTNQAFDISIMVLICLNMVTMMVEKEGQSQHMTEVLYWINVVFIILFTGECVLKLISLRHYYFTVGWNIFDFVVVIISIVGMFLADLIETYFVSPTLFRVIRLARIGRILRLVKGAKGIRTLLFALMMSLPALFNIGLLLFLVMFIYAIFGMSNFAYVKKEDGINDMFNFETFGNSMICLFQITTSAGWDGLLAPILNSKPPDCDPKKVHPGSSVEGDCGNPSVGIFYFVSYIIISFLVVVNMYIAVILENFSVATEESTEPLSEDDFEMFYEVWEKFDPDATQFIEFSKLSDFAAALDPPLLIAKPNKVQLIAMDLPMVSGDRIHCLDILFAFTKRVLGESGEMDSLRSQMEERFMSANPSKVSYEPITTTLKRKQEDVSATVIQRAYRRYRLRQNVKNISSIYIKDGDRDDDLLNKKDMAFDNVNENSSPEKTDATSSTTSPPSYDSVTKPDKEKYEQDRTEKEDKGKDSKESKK
Protocol: (§1) Biological assays were performed on Chinese hamster ovary (CHO) cells that express human sodium channels Nav 1.8 or Nav 1.7 in a stable manner.
(§2) The experimental protocol voltage-clamp using the whole cell configuration was established on the automated ScreenPatch® 384P platform (SP384PE, Nanion Technologies, Livingston, NJ) and the results were recorded with a Nanion 384-well Patch Clamp chip (NPC) (Nanion Technologies, Livingston, NJ).
(§3) Formula I compounds were diluted in eight concentrations in the extracellular solution composed of saline solution, buffered with HEPES (mM): NaCl, 137; KCl, 4; CaCl2, 3,8; MgCl2, 1; HEPES, 10; Glucose, 10; pH 7.4. The […], 50; CsF, 90; MgCl2, 5; EGTA, 5; HEPES, 10; pH 7.2. The duration of exposure of each compound with cells expressing Nav 1.7 or Nav 1.8 was at least five minutes and the assays were performed at room temperature.
(§4) The measurements of the sodium currents of Nav 1.8 and Nav 1.7 were obtained using the voltage protocol described below.
(§5) A holding voltage of -100 mV was established followed by an inactivation voltage step at -40 mV for 8 seconds, followed by a step of -100 mV for 20 ms, followed by a 20 ms step for 10 mV for Nav 1.8 or 0 mV for Nav 1.7 (TP1A) before returning to the holding voltage of -100 mV.
(§6) The protocol was repeated at a frequency of 0.05 Hz and the amplitude of the current was quantified throughout the recording of the TP1A phase. The variation in the amplitude of the peak current was evaluated according to the formula described below, after exposing the cells expressing the channels to each concentration of the different compounds: % Block = (1−(ITP1A,molecule/ITP1A,basal)×100%, [formula] wherein ITP1A,basal and ITP1A,molecule represent the peaks of sodium current input into TP1A before exposure to the compound and in the presence of the compound, respectively.
(§7) Data were obtained by nonlinear regression (nonlinear least squares) with XLfit for Excel (Microsoft, Redmond, WA).
(§8) The compounds were tested in at least one assay to obtain the value of CI50. For compounds that were tested in two or more assays, the results are described as the means of the CI50 values.

[2] = target: T2, human sodium channels Nav 1.8 (Homo sapiens, UniProt Q9Y5Y9); test: Automated whole-cell voltage-clamp (ScreenPatch 384P) sodium current block, Nav 1.8; format: cell-based; settings: CHO cells stably expressing human Nav 1.8; inactivation step -40 mV 8 s, test step 10 mV (TP1A); eight concentrations; exposure at least five minutes; room temperature; read-out: Nav1.8 IC50
T2 construct: expressed in transfected cells
T2 sequence (Q9Y5Y9 whole entry): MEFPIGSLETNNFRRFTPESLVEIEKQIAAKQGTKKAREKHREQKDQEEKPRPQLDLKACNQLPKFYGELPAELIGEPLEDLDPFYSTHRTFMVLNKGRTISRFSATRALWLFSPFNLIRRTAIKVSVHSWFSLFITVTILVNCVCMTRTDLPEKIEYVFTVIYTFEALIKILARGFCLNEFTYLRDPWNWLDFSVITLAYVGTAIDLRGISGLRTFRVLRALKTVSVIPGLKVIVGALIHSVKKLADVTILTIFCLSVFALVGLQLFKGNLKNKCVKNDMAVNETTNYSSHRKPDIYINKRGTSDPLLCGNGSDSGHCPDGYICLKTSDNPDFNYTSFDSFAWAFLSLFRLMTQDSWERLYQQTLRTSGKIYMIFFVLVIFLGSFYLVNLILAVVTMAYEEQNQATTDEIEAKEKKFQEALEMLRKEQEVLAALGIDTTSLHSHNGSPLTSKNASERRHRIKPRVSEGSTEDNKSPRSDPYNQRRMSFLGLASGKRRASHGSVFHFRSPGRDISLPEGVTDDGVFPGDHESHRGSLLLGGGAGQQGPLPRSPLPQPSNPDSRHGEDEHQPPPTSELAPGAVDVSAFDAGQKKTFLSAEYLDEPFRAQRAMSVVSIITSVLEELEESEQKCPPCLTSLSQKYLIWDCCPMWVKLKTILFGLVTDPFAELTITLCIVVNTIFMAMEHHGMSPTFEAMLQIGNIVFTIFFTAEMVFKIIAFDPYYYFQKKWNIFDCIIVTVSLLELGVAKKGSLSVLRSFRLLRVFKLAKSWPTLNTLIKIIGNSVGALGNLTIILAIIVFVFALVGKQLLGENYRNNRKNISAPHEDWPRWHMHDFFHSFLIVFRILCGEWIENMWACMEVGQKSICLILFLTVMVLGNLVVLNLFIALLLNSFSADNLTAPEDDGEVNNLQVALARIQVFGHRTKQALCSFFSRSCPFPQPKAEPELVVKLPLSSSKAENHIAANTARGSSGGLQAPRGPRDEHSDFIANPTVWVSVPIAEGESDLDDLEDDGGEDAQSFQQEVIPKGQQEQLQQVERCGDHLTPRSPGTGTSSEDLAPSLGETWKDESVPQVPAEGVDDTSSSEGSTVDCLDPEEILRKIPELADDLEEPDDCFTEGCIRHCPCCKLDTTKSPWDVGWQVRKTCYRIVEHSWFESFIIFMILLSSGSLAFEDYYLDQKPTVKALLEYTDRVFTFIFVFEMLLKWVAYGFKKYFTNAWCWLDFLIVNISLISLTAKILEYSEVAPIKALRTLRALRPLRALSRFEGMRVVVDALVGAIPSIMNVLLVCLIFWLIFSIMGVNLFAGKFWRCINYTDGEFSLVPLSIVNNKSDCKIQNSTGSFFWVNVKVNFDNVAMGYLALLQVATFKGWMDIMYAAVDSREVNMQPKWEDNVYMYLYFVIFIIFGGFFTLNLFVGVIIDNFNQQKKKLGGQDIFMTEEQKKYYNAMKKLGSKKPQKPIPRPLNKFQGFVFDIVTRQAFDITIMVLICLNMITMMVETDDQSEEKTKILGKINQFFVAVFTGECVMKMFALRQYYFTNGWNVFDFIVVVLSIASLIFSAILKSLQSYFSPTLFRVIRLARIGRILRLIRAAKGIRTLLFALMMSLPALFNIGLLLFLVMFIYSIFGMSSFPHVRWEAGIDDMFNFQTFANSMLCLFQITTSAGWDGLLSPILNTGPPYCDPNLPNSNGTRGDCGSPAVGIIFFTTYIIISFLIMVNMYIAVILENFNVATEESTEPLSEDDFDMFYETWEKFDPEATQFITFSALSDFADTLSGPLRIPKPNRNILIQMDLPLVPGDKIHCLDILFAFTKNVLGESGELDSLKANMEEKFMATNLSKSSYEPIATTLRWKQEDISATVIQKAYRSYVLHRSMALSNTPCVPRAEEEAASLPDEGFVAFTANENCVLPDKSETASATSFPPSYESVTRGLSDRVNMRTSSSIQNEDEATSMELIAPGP
Protocol: as §1, §2, §3, §4, §5, §6, §7, §8

SMILES	IC50 [1]	IC50 [2]
COc1ccc(F)c(/C=N/NC(=O)c2cncc(-c3ccc(OCC4CNC4)nc3)n2)c1 [Compound 140, (E)-6-(6-(azetidin-3-ylmethoxy)pyridine-3-yl)-N'-(2-fluoro-5-methoxybenzylidene) pyrazine-2-carbohydrazide]	> 1000 nM	> 1000 nM
CCOc1ccc(F)c(/C=N/NC(=O)c2cncc(-c3ccc(OC4CC4)nc3)n2)c1 [Compound 80, (E)-6-(6-cyclopropoxypyridine-3-yl)-N'-(5-ethoxy-2-fluorobenzylidene)pyrazine-2-carbohydrazide]	> 1000 nM	< 500 nM
CCOc1ccc(-c2cnc(N)c(C(=O)N/N=C/c3cc(OC)ccc3F)n2)cn1 [Compound 64, (E)-3-amino-6-(6-ethoxypyridine-3-yl)-N'-(2-fluoro-5-methoxybenzylidene) pyrazine-2-carbohydrazide]	> 1000 nM	500 to 1000 nM
CCOc1ccc(-c2cncc(C(=O)N/N=C/c3cc(OC)cnc3F)n2)c(OC)n1 [Compound 154, (E)-6-(6-ethoxy-2-methoxypyridine-3-yl)-N'-((2-fluoro-5-methoxypyridine-3-yl)methylene)pyrazine-2-carbohydrazide]	< 500 nM	< 500 nM
CCOc1ccc(-c2cncc(C(=O)N/N=C/c3cc(OC)ccn3)n2)cn1 [Compound 9, (E)-6-(6-ethoxypyridine-3-yl)-N'-((4-methoxypyridine-2-yl)methylene)pyrazine-2-carbohydrazide]	> 1000 nM	< 500 nM
CCOc1ccc(-c2cncc(C(=O)N/N=C/c3cncc(C(C)O)c3)n2)cn1 (centres unmarked) [Compound 24, (E)-6-(6-ethoxypyridine-3-yl)-N'-((5-(1-hydroxyethyl)pyridine-3-yl)methylene)pyrazine-2-carbohydrazide]	> 1000 nM	> 1000 nM
COc1cnc(C)c(/C=N/NC(=O)c2cncc(-c3ccc(OC(F)F)nc3)n2)c1 [Compound 103, (E)-6-(6-(difluoromethoxy)pyridine-3-yl)-N'-((5-methoxy-2-methylpyridine-3-yl)methylene)pyrazine-2-carbohydrazide]	> 1000 nM	< 500 nM
CCOc1ccc(-c2nccc(C(=O)N/N=C/c3cc(OC)cnc3F)n2)cn1 [Compound 72, (E)-2-(6-ethoxypyridine-3-yl)-N'-((2-fluoro-5-methoxypyridine-3-yl)methylene) pyrimidine-4-carbohydrazide]	> 1000 nM	< 500 nM

The remaining lines, values ahead:

IC50 [1]	IC50 [2]	SMILES
> 1000 nM	< 500 nM	CCOc1ccc(-c2cncc(C(=O)N/N=C/c3cc(OC4CC4)ccc3F)n2)cn1 [Compound 6, (E)-N'-(5-cyclopropoxy-2-fluorobenzylidene)-6-(6-ethoxypyridine-3-yl)pyrazine-2-carbohydrazide]
> 1000 nM	> 1000 nM	COc1ccc(O)c(/C=N/NC(=O)c2cncc(-c3ccc(OC(F)F)nc3)n2)c1 [Compound 120, (E)-6-(6-(difluoromethoxy)pyridine-3-yl)-N'-(2-hydroxy-5-methoxybenzylidene)pyrazine-2-carbohydrazide]
> 1000 nM	< 500 nM	CC(O)c1ccc(F)c(/C=N/NC(=O)c2cncc(-c3ccc(OC(F)F)nc3)n2)c1 (centres unmarked) [Compound 110, (E)-6-(6-(difluoromethoxy)pyridine-3-yl)-N'-(2-fluoro-5-(1-hydroxyethyl)benzylidene)pyrazine-2-carbohydrazide]
> 1000 nM	> 1000 nM	O=C(N/N=C/c1cccc(O)n1)c1cncc(-c2ccc(OC(F)F)nc2)n1 [Compound 115, (E)-6-(6-(difluoromethoxy)pyridine-3-yl)-N'-((6-hydroxypyridine-2-yl)methylene) pyrazine-2-carbohydrazide]
> 1000 nM	> 1000 nM	COc1ccc(F)c(/C=N/NC(=O)c2cncc(-c3ccc(OCCC4CN(C)C4)nc3)n2)c1 [Compound 147, (E)-N'-(2-fluoro-5-methoxybenzylidene)-6-(6-(2-(1-methylazetidine-3-yl)ethoxy)pyridine-3-yl)pyrazine-2-carbohydrazide]
